These results are taken from US11932628B2, “Selective small molecule peptidomimetic melanocortin ligands” (REGENTS OF THE UNIVERSITY OF MINNESOTA, priority 2021, dated 2024).

Test [1] addresses mMC1R (Mus musculus, UniProt Q01727). The test can be described thus: cAMP based functional bioassay (CRE/β-galactosidase reporter), agonist activity at mMC1R. To be noted: for mMC1R Activity @ 10 μM (class) / mMC1R Activity @ 10 μM (relative activity, percent): reported where receptor not activated to full activity.
Experimental: (§1) The compounds were evaluated using a whole cell assay.
(§2) Compounds were dissolved in DMSO at a stock concentration of 10^−2 M and stored at −20° C. until assayed. HEK-293 cells stably expressing the selected melanocortin receptors were transiently transfected with 4 μg of CRE/β-galactosidase reporter gene. Briefly, 5000-15000 post transfection cells were plated into collagen treated 96-well plates (Nunc) and incubated overnight. […] The assay media was aspirated, and 50 μL of lysis buffer (250 mM Tris-HCl pH=8.0 and 0.1% Triton X-100) was added. The plates were stored at −80° C. overnight. The plates containing the cell lysates were thawed the following day. Aliquots of 10 μL were taken from each well and transferred to another 96-well plate for relative protein determination. To the cell lysate plates, 40 μL of phosphate-buffered saline with 0.5% BSA was added to each well. Subsequently, 150 μL of substrate buffer (60 mM sodium phosphate, 1 mM MgCl2, 10 mM KCl, 5 mM β-mercaptoethanol, 2 mg/mL ONPG) was added to each well and the plates were incubated at 37° C. The sample absorbance, OD405, was measured using a 96-well plate reader (Molecular Devices). The relative protein was determined by adding 200 μL of 1:5 dilution BioRad G250 protein dye:water to the 10 μL of cell lysate sample taken previously, and the OD595 was measured on a 96-well plate reader (Molecular Devices). Data points were normalized to forskolin and the relative protein content were used as positive controls. The EC50 values represent the mean of three or more independent experiments. The EC50 estimates, and their associated standard errors of the mean, were determined by fitting the data to a nonlinear least-squares analysis using the PRISM program (v4.0, GraphPad Inc.).
(§3) The results are tabulated in the form of EC50 values. In the case where the particular receptor was not activated to full activity at 100,000 nM, then the relative activity was reported.
Test [2] concerns the target mMC4R (Mus musculus, UniProt P56450). The test can be described thus: cAMP based functional bioassay (CRE/β-galactosidase reporter), agonist activity at mMC4R. Conditions: for mMC4R Activity @ 10 μM (class) / mMC4R Activity @ 10 μM (relative activity, percent): reported where receptor not activated to full activity.
Test [3] deals with mMC3R (Mus musculus, UniProt P33033). The test can be described thus: cAMP based functional bioassay (CRE/β-galactosidase reporter), agonist activity at mMC3R. To be noted: for mMC3R Activity @ 10 μM (class) / mMC3R Activity @ 10 μM (relative activity, percent): reported where receptor not activated to full activity.
Sequence of mMC3R (P33033 whole entry): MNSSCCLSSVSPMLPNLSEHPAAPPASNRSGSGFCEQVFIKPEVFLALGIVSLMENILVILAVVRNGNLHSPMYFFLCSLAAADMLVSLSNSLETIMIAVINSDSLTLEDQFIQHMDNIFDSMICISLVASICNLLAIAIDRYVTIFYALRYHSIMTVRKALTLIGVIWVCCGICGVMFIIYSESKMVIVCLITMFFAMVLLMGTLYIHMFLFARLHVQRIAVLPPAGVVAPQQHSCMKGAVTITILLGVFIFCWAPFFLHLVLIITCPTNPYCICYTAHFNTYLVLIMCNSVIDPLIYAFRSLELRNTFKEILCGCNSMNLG
Experimental: as §1, §2, §3
In test [4] the target is mMC5R (Mus musculus, UniProt P41149). Briefly: cAMP based functional bioassay (CRE/β-galactosidase reporter), agonist activity at mMC5R.
Sequence of mMC5R (P41149 whole entry): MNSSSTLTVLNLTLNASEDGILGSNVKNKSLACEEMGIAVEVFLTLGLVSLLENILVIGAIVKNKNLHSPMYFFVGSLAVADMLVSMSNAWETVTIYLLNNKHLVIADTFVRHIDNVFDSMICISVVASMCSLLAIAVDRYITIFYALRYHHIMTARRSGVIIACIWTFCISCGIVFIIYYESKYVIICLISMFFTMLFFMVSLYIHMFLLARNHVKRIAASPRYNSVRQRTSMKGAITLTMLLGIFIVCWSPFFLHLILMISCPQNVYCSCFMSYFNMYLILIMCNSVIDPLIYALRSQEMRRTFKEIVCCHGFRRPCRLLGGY
Experimental: as §1, §2, §3

Sequence of mMC1R (Q01727 whole entry): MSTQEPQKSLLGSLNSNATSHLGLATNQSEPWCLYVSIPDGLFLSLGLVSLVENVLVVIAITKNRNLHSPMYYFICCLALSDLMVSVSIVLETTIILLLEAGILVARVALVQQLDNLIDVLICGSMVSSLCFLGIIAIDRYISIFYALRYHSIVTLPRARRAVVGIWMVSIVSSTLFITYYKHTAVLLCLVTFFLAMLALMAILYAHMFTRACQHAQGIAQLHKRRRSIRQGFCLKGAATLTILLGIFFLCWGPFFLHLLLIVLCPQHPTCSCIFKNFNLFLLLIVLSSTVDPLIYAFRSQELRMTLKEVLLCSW
Sequence of mMC4R (P56450 whole entry): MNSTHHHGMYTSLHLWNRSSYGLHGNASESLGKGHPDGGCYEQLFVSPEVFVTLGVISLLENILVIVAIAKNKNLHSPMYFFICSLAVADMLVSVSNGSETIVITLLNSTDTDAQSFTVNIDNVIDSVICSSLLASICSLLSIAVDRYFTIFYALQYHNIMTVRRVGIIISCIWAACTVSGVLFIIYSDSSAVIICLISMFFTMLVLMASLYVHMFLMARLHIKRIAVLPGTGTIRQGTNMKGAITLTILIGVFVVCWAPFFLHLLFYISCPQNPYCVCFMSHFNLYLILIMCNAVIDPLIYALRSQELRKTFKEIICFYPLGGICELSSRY

The EC50 is the concentration at which the effect is half-maximal. Read a low EC50 as greater potency. Regarding `CC(C)CCCN1C(=N)N([C@H](CC2CCCCC2)CN2CCC[C@H]2CN2C(=N)NC[C@H]2C(C)C)C[C@H]1C(C)C` [TPI 2509-30, (R)-1-((R)-1-cyclohexyl-3-((S)-2-(((R)-2-imino-5-isopropylimidazolidin-1-yl)methyl)pyrrolidin-1-yl)propan-2-yl)-4-isopropyl-3-(4-methylpentyl)imidazolidin-2-imine], the EC50 in test [1] stood at 6100 nM; in test [4] it was 1700 ± 520 nM. The “mMC4R Activity @ 10 μM (class)” value in test [2] is given as “B (B: >51%)”. Also, in test [3], the “mMC3R Activity @ 10 μM (class)” value is recorded as “B (B: >51%)”.
On to `CCC[C@@H]1CN([C@H](CC2CCCCC2)CN2CCC[C@H]2CN2C(=N)NC[C@H]2C(C)C)C(=N)N1CC12CC3CC(CC(C3)C1)C2` [TPI 2509-25, (R)-3-(adamantan-1-ylmethyl)-1-((R)-1-cyclohexyl-3-((S)-2-(((R)-2-imino-5-isopropylimidazolidin-1-yl)methyl)pyrrolidin-1-yl)propan-2-yl)-4-propylimidazolidin-2-imine], for which the EC50 in test [1] was determined as 550 nM; in test [3], 2800 ± 1800 nM; in test [4] it was 590 ± 180 nM. The “mMC4R Activity @ 10 μM (class)” value in test [2] was “A (A: <50%)”. In test [2], the “mMC4R Activity @ 10 μM (relative activity, percent)” value is recorded as 45%.
Regarding `CCC[C@@H]1CN([C@H](CC2CCCCC2)CN2CCC[C@H]2CN2C(=N)NC[C@H]2CC(C)C)C(=N)N1CC12CC3CC(CC(C3)C1)C2` [TPI 2509-7], in test [1], the “mMC1R Activity @ 10 μM (class)” value is recorded as “B (B: >51%)” and the “mMC1R Activity @ 10 μM (relative activity, percent)” value was 70%. For the same compound, in test [2], the “mMC4R Activity @ 10 μM (class)” value was “A (A: <50%)” and the “mMC4R Activity @ 10 μM (relative activity, percent)” value worked out at 51%. Further, in test [3], the “mMC3R Activity @ 10 μM (class)” value is “B (B: >51%)” and the “mMC3R Activity @ 10 μM (relative activity, percent)” value is listed as 67%. The EC50 in test [4] worked out at 470 ± 90 nM.
As for `CCC[C@@H]1CN([C@H](Cc2ccccc2)CN2CCC[C@H]2CN2C(=N)NC[C@H]2CC(C)C)C(=N)N1CC1CCC(C(C)(C)C)CC1` (some centres unmarked) [TPI 2509-17], in test [1], the “mMC1R Activity @ 10 μM (class)” value is “A (A: <50%)” and the “mMC1R Activity @ 10 μM (relative activity, percent)” value was 38%. Besides, in test [2], the “mMC4R Activity @ 10 μM (class)” value is listed as “A (A: <50%)” and the “mMC4R Activity @ 10 μM (relative activity, percent)” value came out at 28%. Moreover, in test [3], the “mMC3R Activity @ 10 μM (class)” value was “B (B: >51%)” and the “mMC3R Activity @ 10 μM (relative activity, percent)” value is reported as 83%. In test [4], this compound registered an EC50 of 480 ± 170 nM.
With `CC(C)CCCN1C(=N)N([C@H](CC2CCCCC2)CN2CCC[C@H]2CN2C(=N)NC[C@H]2CC(C)C)C[C@H]1C(C)C` [TPI 2509-12], in test [1], the “mMC1R Activity @ 10 μM (class)” value is “B (B: >51%)” and the “mMC1R Activity @ 10 μM (relative activity, percent)” value was found to be 50%. Also, in test [2], the “mMC4R Activity @ 10 μM (class)” value is on record as “B (B: >51%)”. Also, in test [3], the “mMC3R Activity @ 10 μM (class)” value is “A (A: <50%)” and the “mMC3R Activity @ 10 μM (relative activity, percent)” value is 33%. Moreover, the EC50 in test [4] stood at 1850 ± 800 nM.
Take `CC(C)[C@@H]1CNC(=N)N1C[C@@H]1CCCN1C[C@@H](Cc1ccccc1)N1C[C@@H](C(C)C)N(CC23CC4CC(CC(C4)C2)C3)C1=N` [TPI 2509-37, (R)-3-(adamantan-1-ylmethyl)-1-((R)-1-((S)-2-(((R)-2-imino-5-isopropylimidazolidin-1-yl)methyl)pyrrolidin-1-yl)-3-phenylpropan-2-yl)-4-isopropylimidazolidin-2-imine]: the figures for the EC50 in test [1], in test [3] and in test [4] were 47800 ± 23100 nM, 4000 ± 1900 nM and 660 ± 130 nM, respectively. The “mMC4R Activity @ 10 μM (class)” value in test [2] is recorded as “B (B: >51%)”. Further, the “mMC4R Activity @ 10 μM (relative activity, percent)” value in test [2] came out at 54%.
Turning to `CC(C)C[C@@H]1CNC(=N)N1C[C@@H]1CCCN1C[C@@H](Cc1ccccc1)N1C[C@@H](C(C)C)N(CC23CC4CC(CC(C4)C2)C3)C1=N` [TPI 2509-19, (R)-3-(adamantan-1-ylmethyl)-1-((R)-1-((S)-2-(((R)-2-imino-5-isobutylimidazolidin-1-yl)methyl)pyrrolidin-1-yl)-3-phenylpropan-2-yl)-4-isopropylimidazolidin-2-imine], the EC50 in test [1] was 15500 ± 14000 nM; in test [2], 8200 ± 3550 nM; in test [4], 440 ± 110 nM. In addition, in test [3], the “mMC3R Activity @ 10 μM (class)” value is reported as “B (B: >51%)”. The “mMC3R Activity @ 10 μM (relative activity, percent)” value in test [3] is given as 67%.
For `CC(C)[C@@H]1CNC(=N)N1C[C@@H]1CCCN1C[C@@H](CC1CCCCC1)N1C[C@@H](C(C)C)N(CC2CCC(C(C)(C)C)CC2)C1=N` (stereo partly drawn) [TPI 2509-29, (R)-3-((4-(tert-butyl)cyclohexyl)methyl)-1-((R)-1-cyclohexyl-3-((S)-2-(((R)-2-imino-5-isopropylimidazolidin-1-yl)methyl)pyrrolidin-1-yl)propan-2-yl)-4-isopropylimidazolidin-2-imine], the EC50 in test [1] came to 290 ± 20 nM; in test [3] it was 4300 ± 3300 nM; in test [4], 510 ± 50 nM. Moreover, the “mMC4R Activity @ 10 μM (class)” value in test [2] is given as “A (A: <50%)”. The “mMC4R Activity @ 10 μM (relative activity, percent)” value in test [2] was 28%.
The compound `CCC[C@@H]1CN([C@H](CC2CCCCC2)CN2CCC[C@H]2CN2C(=N)NC[C@H]2CC(C)C)C(=N)N1CC1CCC(C(C)(C)C)CC1` (stereo partly drawn) [TPI 2509-8, (R)-3-((4-(tert-butyl)cyclohexyl)methyl)-1-((R)-1-cyclohexyl-3-((S)-2-(((R)-2-imino-5-isobutylimidazolidin-1-yl)methyl)pyrrolidin-1-yl)propan-2-yl)-4-propylimidazolidin-2-imine] had a concentration for a half-maximal effect (EC50) in test [1] of 500 ± 50 nM. In addition, in test [2], the “mMC4R Activity @ 10 μM (class)” value is “B (B: >51%)” and the “mMC4R Activity @ 10 μM (relative activity, percent)” value stood at 65%. In addition, in test [3], the “mMC3R Activity @ 10 μM (class)” value is listed as “B (B: >51%)” and the “mMC3R Activity @ 10 μM (relative activity, percent)” value came to 75%. The concentration giving a half-maximal response (EC50) in test [4] stood at 530 ± 50 nM.
For the compound `CCC[C@@H]1CN([C@H](CC2CCCCC2)CN2CCC[C@H]2CN2C(=N)NC[C@H]2C(C)C)C(=N)N1CCCC(C)C` [TPI 2509-27], the “mMC1R Activity @ 10 μM (class)” value in test [1] is reported as “B (B: >51%)”. Moreover, in test [2], the “mMC4R Activity @ 10 μM (class)” value is recorded as “A (A: <50%)” and the “mMC4R Activity @ 10 μM (relative activity, percent)” value was determined as 40%. In addition, the “mMC3R Activity @ 10 μM (class)” value in test [3] is listed as “B (B: >51%)”. Moreover, the midpoint of the response in test [4], the EC50, lay at 1040 ± 150 nM.
Take `CCC[C@@H]1CN([C@H](Cc2ccccc2)CN2CCC[C@H]2CN2C(=N)NC[C@H]2C(C)C)C(=N)N1CC1CCC(C(C)(C)C)CC1` (stereo partly drawn) [TPI 2509-35, (R)-3-((4-(tert-butyl)cyclohexyl)methyl)-1-((R)-1-((S)-2-(((R)-2-imino-5-isopropylimidazolidin-1-yl)methyl)pyrrolidin-1-yl)-3-phenylpropan-2-yl)-4-propylimidazolidin-2-imine]: the EC50 in test [1] was determined as 2300 ± 1000 nM; in test [3] it was 6200 ± 5400 nM; in test [4], 940 ± 340 nM. The “mMC4R Activity @ 10 μM (class)” value in test [2] is on record as “A (A: <50%)”. Also, in test [2], the “mMC4R Activity @ 10 μM (relative activity, percent)” value is 27%.
Regarding `CCC[C@@H]1CN([C@H](CC2CCCCC2)CN2CCC[C@H]2CN2C(=N)NC[C@H]2CC(C)C)C(=N)N1CCCC(C)C` [TPI 2509-9], the EC50 stood at 2300 ± 90 nM in test [1], 6700 ± 2400 nM in test [2] and 1800 ± 130 nM in test [4]. Moreover, in test [3], the “mMC3R Activity @ 10 μM (class)” value was “B (B: >51%)”. The “mMC3R Activity @ 10 μM (relative activity, percent)” value in test [3] was 58%.
For `CC(C)C[C@@H]1CNC(=N)N1C[C@@H]1CCCN1C[C@@H](CC1CCCCC1)N1C[C@@H](C(C)C)N(CC23CC4CC(CC(C4)C2)C3)C1=N` [TPI 2509-10], in test [1], the EC50 was determined as 570 ± 150 nM. Also, in test [2], the “mMC4R Activity @ 10 μM (class)” value was “A (A: <50%)” and the “mMC4R Activity @ 10 μM (relative activity, percent)” value was determined as 50%. Moreover, in test [3], the “mMC3R Activity @ 10 μM (class)” value is “B (B: >51%)” and the “mMC3R Activity @ 10 μM (relative activity, percent)” value was 70%. In addition, in test [4], the midpoint of the response, the EC50, lay at 500 ± 40 nM.
For `CCC[C@@H]1CN([C@H](Cc2ccccc2)CN2CCC[C@H]2CN2C(=N)NC[C@H]2C(C)C)C(=N)N1CC12CC3CC(CC(C3)C1)C2` [TPI 2509-34, (R)-3-(adamantan-1-ylmethyl)-1-((R)-1-((S)-2-(((R)-2-imino-5-isopropylimidazolidin-1-yl)methyl)pyrrolidin-1-yl)-3-phenylpropan-2-yl)-4-propylimidazolidin-2-imine], the EC50 was 6700 ± 4700 nM in test [1], 1400 ± 760 nM in test [2], 2000 ± 850 nM in test [3] and 6600 ± 5740 nM in test [4].
On to `CC(C)[C@@H]1CNC(=N)N1C[C@@H]1CCCN1C[C@@H](CC1CCCCC1)N1C[C@@H](C(C)C)N(CC23CC4CC(CC(C4)C2)C3)C1=N` [TPI 2509-28, (R)-3-(adamantan-1-ylmethyl)-1-((R)-1-cyclohexyl-3-((S)-2-(((R)-2-imino-5-isopropylimidazolidin-1-yl)methyl)pyrrolidin-1-yl)propan-2-yl)-4-isopropylimidazolidin-2-imine], for which the EC50 in test [1] came to 300 ± 30 nM; in test [3], 3700 ± 880 nM; in test [4] it was 580 ± 160 nM. Besides, in test [2], the “mMC4R Activity @ 10 μM (class)” value is “A (A: <50%)”. Besides, the “mMC4R Activity @ 10 μM (relative activity, percent)” value in test [2] is on record as 40%.
`CC[C@H](C)[C@@H]1CNC(=N)N1C[C@@H]1CCCN1C[C@@H](Cc1ccccc1)N1CC(Cc2ccc(O)cc2)N(CC2CCC(C(C)(C)C)CC2)C1=N` (stereo partly drawn) [TPI 2509-40, 4-((1-((R)-1-((S)-2-(((R)-5-((S)-sec-butyl)-2-iminoimidazolidin-1-yl)methyl)pyrrolidin-1-yl)-3-phenylpropan-2-yl)-3-((4-(tert-butyl)cyclohexyl)methyl)-2-iminoimidazolidin-4-yl)methyl)phenol] returned a half-maximal effective concentration (EC50) in test [1] of 290 ± 20 nM. Further, in test [2], the “mMC4R Activity @ 10 μM (class)” value is listed as “A (A: <50%)” and the “mMC4R Activity @ 10 μM (relative activity, percent)” value worked out at 23%. Moreover, in test [3], the “mMC3R Activity @ 10 μM (class)” value is listed as “B (B: >51%)” and the “mMC3R Activity @ 10 μM (relative activity, percent)” value worked out at 65%. This compound also showed an EC50 in test [4] of 380 ± 50 nM.
